Laboratory results: paper PMC7766327, “Inhibition of Pneumolysin Cytotoxicity by Hydrolysable Tannins” (Antibiotics, 2020)
Read-outs that look alike come from different tables or passages of the source.

What was measured:
pneumolysin (Ply) [1] = target: T1, pneumolysin (Ply) (Streptococcus pneumoniae serotype 2, UniProt Q04IN8); experiment: cell-based; type: cell-based
T1 construct: made in house; host or cells: E. coli BL21(DE3)
Procedure: Native human erythrocytes were taken into EDTA tubes. The erythrocytes were washed three times with PBS (0.15 M NaCl, 2.7 mM KCl, 8.1 mM Na2HPO4 and 1.5 mM KH2PO4) by centrifugation at 700× g for 10 min. The purified erythrocytes were stored at +4 °C. Erythrocytes (1% v/v) in PBS were mixed with 1 nM Ply and dilution series of polyphenol inhibitors in 96-well microtiter plates. The reaction was incubated for 30 min at 37 °C. The plates were centrifuged, and the supernatant was pipetted into flat-bottomed microtiter plates to measure the absorbance at 570 nm (VICTOR X4, PerkinElmer, Turku, Finland) of the released hemoglobin from lysed erythrocytes. The absorbances of triplicate measurements are presented as a function of inhibitor concentration. The IC50 values were calculated with Origin data analysis software (2016, OriginLab Corporation, Northampton, MA, USA).

pneumolysin (Ply) [2] = target: T1, pneumolysin (Ply); experiment: Precipitation assay of pneumolysin-tannin interaction; type: binding; details: for Minimum Precipitating Concentration: 10 μM Ply, Na-acetate buffer pH 5.0, 25 °C, 30 min, absorbance 414 nm; for Precipitation Relative Power: fold compared to vescalagin (=1); for Fold higher precipitating concentration compared to hemolysis IC50: minimum precipitating concentration vs hemolysis IC50
Procedure: The precipitation assay with tannins was done as described previously with bovine serum albumin [22]. First, 10 μM of Ply and dilution series of polyphenols (5–1000 µM) were incubated in a Na-acetate buffer (200 mM NaCl and 50 mM CH3COONa; pH 5.0) at 25 °C for 30 min with shaking. The reactions were carried out in Multiskan Ascent plate reader (Labsystems, Vantaa, Finland) and the precipitation was measured at 414 nm. The minimum concentration precipitating Ply was calculated with Origin data analysis software (2016, OriginLab Corporation, Northampton, MA, USA).

[3] = IC50 (screening with hemolysis assays), estimated from the inhibition curves, two-fold dilutions of tannins
[4] = read-out: IC50 (screening with hemolysis assays), estimated from the inhibition curves, two-fold dilutions of tannins
[5] = Hemolysis Inhibition IC50, 1 nM Ply, 1% human erythrocytes, 30 min 37 °C, logistic fit
[6] = classification by IC50 from two-fold dilutions

T1 sequence (Q04IN8 whole entry): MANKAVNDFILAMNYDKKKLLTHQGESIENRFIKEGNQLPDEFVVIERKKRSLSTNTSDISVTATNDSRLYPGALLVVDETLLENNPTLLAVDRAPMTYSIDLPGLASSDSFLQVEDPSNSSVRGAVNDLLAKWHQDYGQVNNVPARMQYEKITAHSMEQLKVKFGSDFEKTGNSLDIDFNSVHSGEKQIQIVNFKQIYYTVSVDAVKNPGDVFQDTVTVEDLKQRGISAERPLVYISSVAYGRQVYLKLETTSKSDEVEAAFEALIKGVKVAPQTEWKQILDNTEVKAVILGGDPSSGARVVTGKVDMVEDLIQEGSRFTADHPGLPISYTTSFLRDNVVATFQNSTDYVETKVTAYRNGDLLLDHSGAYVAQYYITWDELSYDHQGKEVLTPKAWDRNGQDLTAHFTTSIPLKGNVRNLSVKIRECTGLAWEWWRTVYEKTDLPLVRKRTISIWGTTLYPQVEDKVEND

Structure (SMILES): O=C1O[C@H]2[C@@H]3OC(=O)c4cc(O)c(O)c(O)c4-c4c(O)c(O)c5oc(=O)c6c(c(O)c(O)c7oc(=O)c4c5c76)-c4c(cc(O)c(O)c4O)C(=O)OC[C@H]3OC(O)[C@@H]2OC(=O)c2cc(O)c(O)c(O)c2-c2c1cc(O)c(O)c2O (mixture of isomers) [Punicalagin]
- IC50 (pneumolysin (Ply) [1]; [3]): 60 nM

Structure (SMILES): O=C(O[C@@H]1O[C@@H]2COC(=O)c3cc(O)c(O)c(O)c3-c3c(cc(O)c(O)c3O)C(=O)O[C@H]2[C@H](O)[C@H]1OC(=O)c1cc(O)c(O)c(O)c1)c1cc(O)c(O)c(O)c1 [1,2,-di-O-galloyl-4,6-HHDP-β-D-glucose]
- IC50 (pneumolysin (Ply) [1]; [3]): 70 nM

Structure (SMILES): O=C(O[C@@H]1O[C@H](CO)[C@@H](O)[C@H](O)[C@H]1O)c1cc(O)c(O)c(O)c1 [1-O-galloyl-β-D-glucose]
- IC50 (pneumolysin (Ply) [1]; [3]): > 100 nM

Structure (SMILES): O=C(OC1OC2COC(=O)c3cc(O)c(O)c(O)c3-c3c(cc(O)c(O)c3O)C(=O)OC2C2OC(=O)c3cc(O)c(O)c(O)c3-c3c(cc(O)c(O)c3O)C(=O)OC12)c1cc(O)c(O)c(Oc2c(C(=O)OC3OC4COC(=O)c5cc(O)c(O)c(O)c5-c5c(cc(O)c(O)c5O)C(=O)OC4C4OC(=O)c5cc(O)c(O)c(O)c5-c5c(cc(O)c(O)c5O)C(=O)OC34)cc(O)c(O)c2O)c1 (stereo not shown) [Agrimoniin]
- IC50 (pneumolysin (Ply) [1]; [4]): 30 nM

Structure (SMILES): O=C1OC[C@H]2OC(=O)c3cc(O)c(O)c(O)c3-c3c(O)c(O)c(O)c4c3C(=O)O[C@H]([C@H]3OC(=O)c5c-4c(O)c(O)c(O)c5[C@H]3O)[C@@H]2OC(=O)c2cc(O)c(O)c(O)c2-c2c1cc(O)c(O)c2O [Castalagin]
- IC50 (pneumolysin (Ply) [1]; [3]): 80 nM

Structure (SMILES): O=C(O[C@@H]1O[C@@H]2COC(=O)c3cc(O)c(O)c(O)c3-c3c(cc(O)c(O)c3O)C(=O)O[C@H]2[C@@H]2OC(=O)c3cc(O)c(O)c(O)c3-c3c(cc(O)c(O)c3O)C(=O)O[C@@H]12)c1cc(O)c(O)c(O)c1 [Casuarictin]
- IC50 (pneumolysin (Ply) [1]; [3]): 40 nM

Structure (SMILES): O=C(O[C@@H]1COC(=O)c2cc(O)c(O)c(O)c2-c2c(cc(O)c(O)c2O)C(=O)O[C@H]1[C@@H]1OC(=O)c2cc(O)c(O)c(O)c2-c2c(O)c(O)c(O)c3c2C(=O)O[C@H]1[C@@H]3O)c1cc(O)c(O)c(O)c1 [Casuarinin]
- IC50 (pneumolysin (Ply) [1]; [3]): 90 nM

Structure (SMILES): O=C(O)C[C@@H]1C(=O)O[C@H]2[C@@H]3OC(=O)c4cc(O)c(O)c(O)c4-c4c(cc(O)c(O)c4O)C(=O)OC[C@H]2O[C@@H](OC(=O)c2cc(O)c(O)c(O)c2)[C@@H]3OC(=O)c2cc(O)c(O)c3c2[C@H]1[C@H](O)C(=O)O3 [Chebulagic acid]
- IC50 (pneumolysin (Ply) [1]; [3]): > 100 nM

Structure (SMILES): O=C(O[C@@H]1O[C@@H]2COC(=O)c3cc(O)c(O)c(O)c3-c3c(cc(O)c(O)c3O)C(=O)O[C@H]2[C@H](OC(=O)c2cc(O)c(O)c(O)c2)[C@H]1OC(=O)c1cc(O)c(O)c(O)c1)c1cc(O)c(O)c(Oc2c(C(=O)O[C@H]3O[C@@H]4COC(=O)c5cc(O)c(O)c(O)c5-c5c(cc(O)c(O)c5O)C(=O)O[C@H]4[C@@H]4OC(=O)c5cc(O)c(O)c(O)c5-c5c(cc(O)c(O)c5O)C(=O)O[C@@H]34)cc(O)c(O)c2O)c1 [Gemin A]
- Hemolysis Inhibition Inhibitory Power (pneumolysin (Ply) [1]): 5.9
- IC50 (pneumolysin (Ply) [1]; [5]): 41 ± 1 nM
- IC50 (pneumolysin (Ply) [1]; [3]): 20 nM
- Inhibitor class in hemolysis inhibition assay (pneumolysin (Ply) [1]; [6]): potent (potent inhibitors (IC50 10–30 nM))
- Minimum Precipitating Concentration (pneumolysin (Ply) [2]): 6.2 µM
- Precipitation Relative Power (pneumolysin (Ply) [2]): 130
- Fold higher precipitating concentration compared to hemolysis IC50 (pneumolysin (Ply) [2]): 150 fold

Structure (SMILES): O=C1O[C@H]2[C@@H]3OC(=O)c4cc(O)c(O)c(O)c4-c4c(cc(O)c(O)c4O)C(=O)OC[C@H]2O[C@@H](OC(=O)c2cc(O)c(O)c(O)c2)[C@@H]3OC(=O)c2cc(O)c(O)c3c2[C@@H]2C1=CC(=O)[C@](O)(O3)C2(O)O [Geraniin]
- IC50 (pneumolysin (Ply) [1]; [3]): 100 nM

Structure (SMILES): O=C(OC1OC2COC(=O)c3cc(O)c(O)c(O)c3-c3c(cc(O)c(O)c3O)C(=O)OC2C2OC(=O)c3cc(O)c(O)c(O)c3-c3c(cc(O)c(O)c3O)C(=O)OC12)c1cc(O)c(O)c(Oc2c(O)c(O)c(O)c3c2C(=O)OC2C(COC(=O)c4cc(O)c(O)c(O)c4-3)OC(OC(=O)c3cc(O)c(O)c(Oc4c(O)c(O)c(O)c5c4C(=O)OC4C(COC(=O)c6cc(O)c(O)c(O)c6-5)OC(OC(=O)c5cc(O)c(O)c(O)c5)C5OC(=O)c6cc(O)c(O)c(O)c6-c6c(cc(O)c(O)c6O)C(=O)OC45)c3)C3OC(=O)c4cc(O)c(O)c(O)c4-c4c(cc(O)c(O)c4O)C(=O)OC23)c1 (stereo not shown) [Lambertianin C]
- IC50 (pneumolysin (Ply) [1]; [4]): 20 nM

Structure (SMILES): O=C(O[C@H]1[C@@H]2OC(=O)c3cc(O)c(O)c(O)c3-c3c4cc(c(O)c3O)Oc3c(cc(O)c(O)c3O)C(=O)O[C@H]3C(O)O[C@@H]5COC(=O)c6cc(O)c(O)c(O)c6-c6c(cc(c(O)c6O)Oc6c(cc(O)c(O)c6O)C(=O)O[C@H]1C(O)O[C@@H]2COC4=O)C(=O)O[C@H]5[C@@H]3OC(=O)c1cc(O)c(O)c(O)c1)c1cc(O)c(O)c(O)c1 (stereo partly shown) [Oenothein B]
- Hemolysis Inhibition Inhibitory Power (pneumolysin (Ply) [1]): 4.4
- IC50 (pneumolysin (Ply) [1]; [5]): 55 ± 2.1 nM
- IC50 (pneumolysin (Ply) [1]; [3]): 60 nM
- Inhibitor class in hemolysis inhibition assay (pneumolysin (Ply) [1]; [6]): moderate (moderate inhibitors (IC50 40–90 nM))
- Minimum Precipitating Concentration (pneumolysin (Ply) [2]): 510 µM
- Precipitation Relative Power (pneumolysin (Ply) [2]): 1.6
- Fold higher precipitating concentration compared to hemolysis IC50 (pneumolysin (Ply) [2]): 9300 fold

Structure (SMILES): O=C1OC[C@H]2OC(O)[C@@H]3OC(=O)c4cc(O)c(O)c(O)c4-c4c(cc(O)c(O)c4O)C(=O)O[C@H]3[C@@H]2OC(=O)c2cc(O)c(O)c(O)c2-c2c1cc(O)c(O)c2O (stereo partly shown) [Pedunculagin]
- IC50 (pneumolysin (Ply) [1]; [3]): > 100 nM

Structure (SMILES): O=C(OC1OC2COC(=O)c3cc(O)c(O)c(O)c3-c3c(cc(O)c(O)c3O)C(=O)OC2C2OC(=O)c3cc(O)c(O)c(O)c3-c3c(cc(O)c(O)c3O)C(=O)OC12)c1cc(O)c(O)c(Oc2c(O)c(O)c(O)c3c2C(=O)OC2C(COC(=O)c4cc(O)c(O)c(O)c4-3)OC(OC(=O)c3cc(O)c(O)c(O)c3)C3OC(=O)c4cc(O)c(O)c(O)c4-c4c(cc(O)c(O)c4O)C(=O)OC23)c1 (stereo not shown) [Sanguiin H-6]
- IC50 (pneumolysin (Ply) [1]; [4]): 20 nM

Structure (SMILES): O=C(OC1COC(=O)c2cc(O)c(O)c(O)c2-c2c(cc(O)c(O)c2O)C(=O)OC1C1OC(=O)c2cc(O)c(O)c(O)c2-c2c(O)c(O)c(O)c3c2C(=O)OC1C3O)c1cc(O)c(O)c(O)c1 (stereo not shown) [Stachyurin]
- IC50 (pneumolysin (Ply) [1]; [3]): > 100 nM

Structure (SMILES): O=C(OC1O[C@@H]2COC(=O)c3cc(O)c(O)c(O)c3-c3c(cc(O)c(O)c3O)C(=O)O[C@H]2[C@H](OC(=O)c2cc(O)c(O)c(O)c2)[C@H]1OC(=O)c1cc(O)c(O)c(O)c1)c1cc(O)c(O)c(O)c1 (stereo partly shown) [Tellimagrandin II]
- Inhibitor class in hemolysis inhibition assay (pneumolysin (Ply) [1]): potent (key: negative or weak inhibitors (IC50 ≥ 100 nM); moderate inhibitors (IC50 40–90 nM); potent inhibitors (IC50 10–30 nM))
- IC50 (pneumolysin (Ply) [1]; [3]): 10 nM

Structure (SMILES): O=C(O[C@H]1[C@@H]2OC(=O)c3cc(O)c(O)c(O)c3-c3c(cc(O)c(O)c3O)C(=O)OC[C@H]2OC(O)[C@@H]1OC(=O)c1cc(O)c(O)c(O)c1)c1cc(O)c(O)c(O)c1 (stereo partly shown) [Tellimagrandin I]
- IC50 (pneumolysin (Ply) [1]; [3]): 60 nM

Structure (SMILES): O=C1OCC2OC(=O)c3cc(O)c(O)c(O)c3-c3c(O)c(O)c(O)c4c3C(=O)OC(C2OC(=O)c2cc(O)c(O)c(O)c2-c2c1cc(O)c(O)c2O)C1OC(=O)c2c-4c(O)c(O)c(O)c2C1O (stereo not shown) [Vescalagin]
- IC50 (pneumolysin (Ply) [1]; [5]): 240 ± 5.3 nM
- IC50 (pneumolysin (Ply) [1]; [3]): > 100 nM
- Inhibitor class in hemolysis inhibition assay (pneumolysin (Ply) [1]; [6]): weak (negative or weak inhibitors (IC50 ≥ 100 nM))
- Hemolysis Inhibition Inhibitory Power (pneumolysin (Ply) [1]; relative to IC50 of vescalagin (=1)): 1
- Minimum Precipitating Concentration (pneumolysin (Ply) [2]): 820 µM
- Precipitation Relative Power (pneumolysin (Ply) [2]): 1
- Fold higher precipitating concentration compared to hemolysis IC50 (pneumolysin (Ply) [2]): 3400 fold
